Data published in patent US20230233569A1 (Revolution Medicines, Inc., priority 2020, published 2023).
Several values for one entry are separate records, joined by “and”; a condition that tells them apart may be missing. Equal entries are not always repeated.

Assays:
Assay in all cases: Disruption of BRAF RBD interaction with Ras (FRET / MOA assay, with Cyclophilin A)
Assay type in all cases: biochemical
KRAS Q61H = KRAS Q61H (Homo sapiens, UniProt P01116+P62937, Q61H); conditions: KRAS Q61H; read-out: KRAS Q61H FRET data IC50
Sequence of KRAS Q61H (P01116 1-169 isoform P01116-2 Q61H limits assumed): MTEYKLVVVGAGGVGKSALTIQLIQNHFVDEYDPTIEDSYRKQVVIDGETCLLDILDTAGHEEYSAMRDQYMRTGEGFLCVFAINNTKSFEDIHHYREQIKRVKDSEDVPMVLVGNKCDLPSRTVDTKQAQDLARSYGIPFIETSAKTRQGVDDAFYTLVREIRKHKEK
Sequence of KRAS Q61H (P62937 whole entry, the tested form may be a part): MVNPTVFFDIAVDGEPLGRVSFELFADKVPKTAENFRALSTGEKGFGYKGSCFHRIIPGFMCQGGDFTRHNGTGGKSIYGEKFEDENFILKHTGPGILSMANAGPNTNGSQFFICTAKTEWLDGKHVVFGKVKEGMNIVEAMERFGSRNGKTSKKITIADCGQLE
Description: (§1) Disruption of B-Raf Ras-Binding Domain (BRAF^RBD) Interaction with K-Ras by Compounds of the Invention (Also Called a FRET Assay or an MOA Assay)
(§2) Note—The following protocol describes a procedure for monitoring disruption of K-Ras G12C (GMP-PNP) binding to BRAF^RBD by a compound of the invention. This protocol may also be executed substituting other Ras proteins or nucleotides.
(§3) The purpose of this biochemical assay was to measure the ability of test compounds to facilitate ternary complex formation between a nucleotide-loaded K-Ras isoform and Cyclophilin A; the resulting ternary complex disrupts binding to a BRAF^RBD construct, inhibiting K-Ras signaling through a RAF effector. Data is reported as IC50 values.
(§4) In assay buffer containing 25 mM HEPES pH 7.3, 0.002% Tween20, 0.1% BSA, 100 mM NaCl and 5 mM MgCl2, tagless Cyclophilin A, His6-K-Ras-GMPPNP, and GST-BRAF^RBD were combined in a 384-well assay plate at final concentrations of 25 μM, 12.5 nM and 50 nM, respectively. Compound was present in plate wells as a 10-point 3-fold dilution series starting at a final concentration of 30 μM. After incubation at 25° C. for 3 hours, a mixture of Anti-His Eu-W1024 and anti-GST allophycocyanin was then added to assay sample wells at final concentrations of 10 nM and 50 nM, respectively, and the reaction incubated for an additional 1.5 hours. […] Compounds that facilitate disruption of a K-Ras:RAF complex were identified as those eliciting a decrease in the TR-FRET ratio relative to DMSO control wells.
(§5) The purpose of this biochemical assay was to measure the ability of test compounds to facilitate ternary complex formation between a nucleotide-loaded K-Ras isoform and Cyclophilin A; the resulting ternary complex disrupts binding to a BRAF^RBDD construct, inhibiting K-Ras signaling through a RAF effector. Data is reported as IC50 values.

NRAS Q61K = NRAS Q61K (Homo sapiens, UniProt P01111+P62937, Q61K); conditions: NRAS Q61K; read-out: NRAS Q61K FRET data IC50
Sequence of NRAS Q61K (P01111 whole entry Q61K): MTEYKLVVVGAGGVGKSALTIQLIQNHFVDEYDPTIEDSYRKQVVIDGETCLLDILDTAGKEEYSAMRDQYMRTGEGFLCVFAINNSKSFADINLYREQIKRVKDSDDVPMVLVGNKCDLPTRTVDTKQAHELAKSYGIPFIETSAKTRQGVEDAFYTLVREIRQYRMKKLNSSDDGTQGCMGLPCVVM
Sequence of NRAS Q61K (P62937 whole entry): as the sequence (P62937 whole entry, the tested form may be a part) above
Description: as §1, §2, §3, §4, §5

NRAS Q61R = NRAS Q61R (Homo sapiens, UniProt P01111+P62937, Q61R); conditions: NRAS Q61R; read-out: NRAS Q61R FRET data IC50
Sequence of NRAS Q61R (P01111 whole entry Q61R): as the sequence (P01111 whole entry Q61K) above, with K61R counted along it
Sequence of NRAS Q61R (P62937 whole entry): as the sequence (P62937 whole entry, the tested form may be a part) above
Description: as §1, §2, §3, §4, §5

KRAS G12C = KRAS G12C (Homo sapiens, UniProt P01116+P62937, G12C); conditions: KRAS G12C; read-out: KRAS G12C FRET data IC50
Sequence of KRAS G12C (P01116 1-169 isoform P01116-2 G12C): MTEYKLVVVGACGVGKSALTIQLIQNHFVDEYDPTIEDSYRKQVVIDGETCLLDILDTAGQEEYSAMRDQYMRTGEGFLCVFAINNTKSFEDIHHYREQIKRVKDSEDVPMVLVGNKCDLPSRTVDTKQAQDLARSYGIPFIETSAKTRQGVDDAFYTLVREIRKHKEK
Sequence of KRAS G12C (P62937 whole entry): as the sequence (P62937 whole entry, the tested form may be a part) above
Procedure, shortened: (§6)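 TR-FRET readout: a drop in ratio relative to DMSO wells marks disruption of the K-Ras:BRAF RBD complex via compound-induced K-Ras–Cyclophilin A ternary complex. Dosing used ten 3-fold steps from 30 μM final, 3 h at 25 °C, then Eu-anti-His 10 nM plus APC-anti-GST 50 nM for another 1.5 h. Values are IC50s.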

KRAS G12S = KRAS G12S (Homo sapiens, UniProt P01116+P62937, G12S); conditions: read-out: KRAS G12S FRET data, IC50
Sequence of KRAS G12S (P01116 1-169 isoform P01116-2 G12S limits assumed): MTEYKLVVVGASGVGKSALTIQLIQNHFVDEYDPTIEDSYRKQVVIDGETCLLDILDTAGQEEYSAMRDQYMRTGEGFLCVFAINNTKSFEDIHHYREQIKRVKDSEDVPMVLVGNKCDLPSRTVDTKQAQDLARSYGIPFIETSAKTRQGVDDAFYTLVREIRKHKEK
Sequence of KRAS G12S (P62937 whole entry): as the sequence (P62937 whole entry, the tested form may be a part) above
Procedure, shortened: as §6

KRAS G12V = KRAS G12V (Homo sapiens, UniProt P01116+P62937, G12V); conditions: KRAS G12V; read-out: KRAS G12V FRET data IC50
Sequence of KRAS G12V (P01116 1-169 isoform P01116-2 G12V limits assumed): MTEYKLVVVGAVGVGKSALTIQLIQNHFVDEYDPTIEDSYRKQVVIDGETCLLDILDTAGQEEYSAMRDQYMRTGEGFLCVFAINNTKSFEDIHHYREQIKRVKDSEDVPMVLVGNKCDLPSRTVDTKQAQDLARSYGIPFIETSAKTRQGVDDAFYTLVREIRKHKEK
Sequence of KRAS G12V (P62937 whole entry): as the sequence (P62937 whole entry, the tested form may be a part) above
Procedure, shortened: as §6

KRAS G12D = KRAS G12D (Homo sapiens, UniProt P01116+P62937, G12D); conditions: read-out: KRAS G12D FRET data, IC50
Sequence of KRAS G12D (P01116 1-169 isoform P01116-2 G12D limits assumed): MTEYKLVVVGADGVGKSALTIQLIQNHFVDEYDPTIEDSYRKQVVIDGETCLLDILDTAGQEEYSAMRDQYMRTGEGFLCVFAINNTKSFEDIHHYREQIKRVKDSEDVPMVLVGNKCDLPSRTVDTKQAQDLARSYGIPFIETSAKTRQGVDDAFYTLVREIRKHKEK
Sequence of KRAS G12D (P62937 whole entry): as the sequence (P62937 whole entry, the tested form may be a part) above
Procedure, shortened: as §6

KRAS G13C = KRAS G13C (Homo sapiens, UniProt P01116+P62937, G13C); conditions: KRAS G13C; read-out: KRAS G13C FRET data IC50
Sequence of KRAS G13C (P01116 1-169 isoform P01116-2 G13C): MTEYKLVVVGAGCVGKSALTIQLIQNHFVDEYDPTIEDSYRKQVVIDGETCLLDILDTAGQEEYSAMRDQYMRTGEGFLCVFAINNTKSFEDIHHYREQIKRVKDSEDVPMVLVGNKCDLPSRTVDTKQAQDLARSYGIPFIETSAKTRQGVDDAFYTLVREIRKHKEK
Sequence of KRAS G13C (P62937 whole entry): as the sequence (P62937 whole entry, the tested form may be a part) above
Procedure, shortened: as §6

KRAS WT = KRAS WT (Homo sapiens, UniProt P01116+P62937); conditions: KRAS WT; read-out: KRAS WT FRET data IC50
Sequence of KRAS WT (P01116 1-169 isoform P01116-2 limits assumed): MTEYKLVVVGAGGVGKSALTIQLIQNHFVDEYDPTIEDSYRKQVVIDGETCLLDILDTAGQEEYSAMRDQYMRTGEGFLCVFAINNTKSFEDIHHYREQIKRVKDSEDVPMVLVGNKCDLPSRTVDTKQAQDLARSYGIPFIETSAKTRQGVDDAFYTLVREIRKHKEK
Sequence of KRAS WT (P62937 whole entry): as the sequence (P62937 whole entry, the tested form may be a part) above
Procedure, shortened: as §6

Compound	IC50 (KRAS Q61H)	IC50 (NRAS Q61K)	IC50 (NRAS Q61R)	IC50 (KRAS G12C)	IC50 (KRAS G12S)	IC50 (KRAS G12V)	IC50 (KRAS G12D)	IC50 (KRAS G13C)	IC50 (KRAS WT)
C=CC(=O)N1CC[C@H](C(=O)N(C)[C@H](C(=O)N[C@H]2Cc3cc(O)cc(c3)-c3ccc4c(c3)c(c(-c3ccccc3[C@H](C)OC)n4CC)CC(C)(C)COC(=O)[C@@H]3CCCN(N3)C2=O)C(C)C)C1 [Example A022]	10 to 100 nM	100 to 1000 nM	0.1 to 1 µM	10 to 100 nM	100 to 1000 nM	100 to 1000 nM	1 to 10 µM	100 to 1000 nM	100 to 1000 nM
C=CC(=O)N1CC[C@H](C(=O)N(C)[C@H](C(=O)N[C@H]2Cc3cc(O)cc(c3)-c3ccc4c(c3)c(c(-c3c(F)cccc3CCOC)n4CC)CC(C)(C)COC(=O)[C@@H]3CCCN(N3)C2=O)C(C)C)C1 [Example A025]	1000 to 10000 nM	1000 to 10000 nM	> 10 µM	100 to 1000 nM	1000 to 10000 nM	1000 to 10000 nM	> 10 µM	1000 to 10000 nM	1000 to 10000 nM
C=CC(=O)N1CC[C@H](C(=O)N(C)[C@H](C(=O)N[C@H]2Cc3cc(O)cc(c3)-c3ccc4c(c3)c(c(-c3ccccc3N3CCOCC3)n4CC)CC(C)(C)COC(=O)[C@@H]3CCCN(N3)C2=O)C(C)C)C1 [Example A026]	1000 to 10000 nM	> 10000 nM	> 10 µM	100 to 1000 nM	> 10000 nM	> 10000 nM	> 10 µM	> 10000 nM	> 10000 nM
C=CC(=O)N1CC[C@H](C(=O)N(C)[C@H](C(=O)N[C@H]2Cc3cc(O)cc(c3)-c3ccc4c(c3)c(c(-c3cccnc3)n4CC)CC(C)(C)COC(=O)[C@@H]3CCCN(N3)C2=O)C(C)C)C1 [Example A045]	100 to 1000 nM	1000 to 10000 nM	> 10 µM	100 to 1000 nM	1000 to 10000 nM	1000 to 10000 nM	> 10 µM	1000 to 10000 nM	1000 to 10000 nM
C=CC(=O)N1CC[C@H](C(=O)N(C)[C@H](C(=O)N[C@H]2Cc3cc(O)cc(c3)-c3cc(F)c4c(c3)c(c(-c3ccccc3CCOC)n4CC)CC(C)(C)COC(=O)[C@@H]3CCCN(N3)C2=O)C(C)C)C1 [Example A053]	1000 to 10000 nM	> 10000 nM	> 10 µM	100 to 1000 nM	1000 to 10000 nM and > 10000 nM	> 10000 nM	> 10 µM	> 10000 nM	> 10000 nM
C=CC(=O)N1CC[C@H](C(=O)N(C)[C@H](C(=O)N[C@H]2Cc3cc(O)cc(c3)-c3ccc4c(c3)c(c(-c3cccnc3N3CC(OC)C3)n4CC)CC(C)(C)COC(=O)[C@@H]3CCCN(N3)C2=O)C(C)C)C1 [Example A060]	1000 to 10000 nM	1000 to 10000 nM	> 10 µM	100 to 1000 nM	1000 to 10000 nM	1000 to 10000 nM	> 10 µM	1000 to 10000 nM	> 10000 nM
C=CC(=O)N1CC[C@H](C(=O)N(C)[C@H](C(=O)N[C@H]2Cc3cc(O)cc(c3)-c3ccc4c(c3)c(c(-c3cncnc3)n4CC)CC(C)(C)COC(=O)[C@@H]3CCCN(N3)C2=O)C(C)C)C1 [Example A061]	1000 to 10000 nM	1000 to 10000 nM	> 10 µM	100 to 1000 nM	1000 to 10000 nM	1000 to 10000 nM	> 10 µM	1000 to 10000 nM	1000 to 10000 nM
C=CC(=O)N1CC[C@H](C(=O)N(C)[C@H](C(=O)N[C@H]2Cc3cc(O)cc(c3)-c3ccc4c(c3)c(c(C3=C(COC)CCCC3)n4CC)CC(C)(C)COC(=O)[C@@H]3CCCN(N3)C2=O)C(C)C)C1 [Example A064]	100 to 1000 nM	1000 to 10000 nM	1 to 10 µM	10 to 100 nM	100 to 1000 nM	1000 to 10000 nM	> 10 µM	1000 to 10000 nM	1000 to 10000 nM
C=CC(=O)N1CC[C@H](C(=O)N(C)[C@H](C(=O)N[C@H]2Cc3cc(O)cc(c3)-c3ccc4c(c3)c(c(-c3cnccc3C)n4CC)CC(C)(C)COC(=O)[C@@H]3CCCN(N3)C2=O)C(C)C)C1 [Example A077]	10 to 100 nM	100 to 1000 nM	1 to 10 µM	10 to 100 nM	100 to 1000 nM	100 to 1000 nM	1 to 10 µM	100 to 1000 nM	100 to 1000 nM
C=CC(=O)N1CC[C@H](C(=O)N(C)[C@H](C(=O)N[C@H]2Cc3cc(O)cc(c3)-c3ccc4c(c3)c(c(-c3c(CCOC)cccc3OC)n4CC)CC(C)(C)COC(=O)[C@@H]3CCCN(N3)C2=O)C(C)C)C1 [Example A080]	1000 to 10000 nM	1000 to 10000 nM	> 10 µM	100 to 1000 nM	> 10000 nM	1000 to 10000 nM	> 10 µM	> 10000 nM	> 10000 nM
C=CC(=O)N1CC[C@H](C(=O)N(C)[C@H](C(=O)N[C@H]2Cc3cc(O)cc(c3)-c3ccc4c(c3)c(c(-c3cc(F)cnc3COC)n4CC)CC(C)(C)COC(=O)[C@@H]3CCCN(N3)C2=O)C(C)C)C1 [Example A082]	10 to 100 nM	100 to 1000 nM	0.1 to 1 µM	10 to 100 nM	100 to 1000 nM	100 to 1000 nM	1 to 10 µM	100 to 1000 nM	100 to 1000 nM
C=CC(=O)N1CC[C@H](C(=O)N(C)[C@H](C(=O)N[C@H]2Cc3cc(O)cc(c3)-c3ccc4c(c3)c(c(-c3cncc(COC)c3)n4CC)CC(C)(C)COC(=O)[C@@H]3CCCN(N3)C2=O)C(C)C)C1 [Example A083]	100 to 1000 nM	1000 to 10000 nM	1 to 10 µM	10 to 100 nM	100 to 1000 nM	1000 to 10000 nM	> 10 µM	1000 to 10000 nM	1000 to 10000 nM
